Data on 72 molecules can be found in ChEMBL document CHEMBL3507680, “University of Dundee, Gates Library screen for HepG2 cell viability”.

Structures are written as SMILES.

This data set is described as follows: Human HepG2 cell viability assay in 384 well format. Type of data set: toxicity, cell-based. Also on record: dose 125 nL, time 70.5 hour; concentration not given beside the values. To be noted: HepG2 cells, read-out: Inhibition.

For the molecule `CC(C)(C)n1ncc2c(=O)n(CC(=O)NCc3ccccc3Cl)cnc21`, the cytotoxicity at 70.5 h was -0.0412%.
For `CC(C)(C)n1ncc2c(=O)n(CC(=O)NCc3ccccc3)cnc21` the value was 7.32%; for `Cc1c(C)n2c(SCC(=O)N3CCOCC3)nnc2[nH]c1=O`, -3.31%; for `CCc1c(C)nc(SCc2ccccn2)[nH]c1=O`, -5.97%.
Take `CCOC(=O)c1sc(NC(=O)C(C)C)c(C#N)c1C`: the cytotoxicity at 70.5 h was -5.23%.
The value for `Cc1c(C)n2c(SCC(=O)N3CCCCC3)nnc2[nH]c1=O` was -8.89%.
The value for `CCn1/c(=N/C(=O)CSCC(=O)Nc2nccs2)sc2ccccc21` was -0.443%; that for `Nc1nc2c(c(NC(=O)Nc3cccc(Cl)c3)n1)CCCC2` was 13.3%; that for `COCCn1/c(=N\C(=O)CN(C)S(C)(=O)=O)sc2cc(C)ccc21` was 14.4%.
For `COCCSc1ccc(-n2cccn2)nn1` the value was 12.3%.
Take `COCCSc1ccc(-n2ccnc2)nn1`: the cytotoxicity at 70.5 h came out at 26.4%.
Take `Cc1ccccc1OCC(=O)NCC(c1ccc(N(C)C)cc1)N(C)C` (configuration not stated): the cytotoxicity at 70.5 h is 29.2%.
The value for `Cc1cc(=O)[nH]c(-n2nc(-c3cccs3)cc2N)n1` was 13.9%; that for `O=c1n(Cc2cccc(C(F)(F)F)c2)nc2ncccn12` was 24.8%; that for `CCN(CC)C(=O)CSc1nc2c(cnn2CCO)c(=O)[nH]1` was 17.2%.
Turning to `O=C(Cc1ccc(Cl)s1)Nc1ccc2c(c1)C(=O)NC2=O`, the cytotoxicity at 70.5 h was -1.77%.
Turning to `NC(=O)Cn1c(CO)cnc1SCC(=O)NCc1ccccc1`, the cytotoxicity at 70.5 h came to 13.6%.
The value for `CN1C(=O)CCc2cc(NC(=O)C3CCCC3)ccc21` was 26.5%.
Take `O=S(=O)(NCC(c1ccsc1)N1CCCCCC1)c1cccs1` (configuration not stated): the cytotoxicity at 70.5 h was -3.34%.
Consider `CCOc1ccc(C(=O)Nc2c(C)nc3scc(C)n3c2=O)cc1`, for which the cytotoxicity at 70.5 h is -0.312%.
As to `CC(=O)Nc1ccc2c(c1)CN(C(=O)c1ccco1)CC2`, the cytotoxicity at 70.5 h was 18.4%.
Turning to `CCOc1cc(N2CCN(C(=O)c3ccc(OC)cc3)CC2)nc(C)n1`, the cytotoxicity at 70.5 h amounted to 5.38%.
Regarding `O=C(Nc1ncnc2c1CCC2)c1cccc(F)c1`, the cytotoxicity at 70.5 h was found to be 11.5%.
For the molecule `COc1cc(OC)cc(C(=O)Nc2ncnc3c2CCC3)c1`, the cytotoxicity at 70.5 h worked out at 59%.
In the case of `Cc1cc(C(=O)N2CCN(c3nc4ccccc4s3)CC2)no1`, the cytotoxicity at 70.5 h was 48.3%.
The value for `COc1cccc2sc(N3CCN(C(=O)c4cc(C)on4)CC3)nc12` was -2.51%; that for `Cc1cnc2c(c1NCc1ccc(F)cc1)c(=O)n(C)c(=O)n2C` was 12.7%.
For the molecule `Cc1cnc2c(c1NCc1cccs1)c(=O)n(C)c(=O)n2C`, the cytotoxicity at 70.5 h was -16.9%.
On to `CC(C)NC(=O)Cn1cc(OCc2ccc(F)cc2)c(=O)cc1CO`, for which the cytotoxicity at 70.5 h was -4.49%.
As to `COCCNC(=O)Cn1cc(OCc2ccc(F)cc2)c(=O)cc1CO`, the cytotoxicity at 70.5 h was -9.69%.
As to `O=C(CC1CSc2nccc(=O)n21)NCc1ccco1` (configuration not stated), the cytotoxicity at 70.5 h was -1.36%.
As for `Cc1cnc2n(c1=O)C(CC(=O)NCc1ccccc1Cl)CS2` (configuration not stated), the cytotoxicity at 70.5 h was 35%.
For `Cc1cnc2n(c1=O)C(CC(=O)NCc1cccnc1)CS2` (configuration not stated) the value was -0.178%; for `CCCc1cc(=O)[nH]c2nnc(SCC(N)=O)n12`, 23.3%.
As for `CCCc1cc(=O)[nH]c2nnc(SCC(C)=O)n12`, the cytotoxicity at 70.5 h is -6.78%.
The value for `Cc1cccc(-n2ncc3c(=O)n(CCN4CCCCC4)cnc32)c1C` was 28%; that for `CCOC(=O)c1sc(NC(=O)CN2C(=O)CCC2=O)c(C#N)c1C` was 31.1%.
The value for `CCS(=O)(=O)c1cccc(C(=O)Nc2cccc3c2C(=O)N(C)C3=O)c1` was 31%; that for `CCCc1cc(=O)n(CC(=O)NCCOC)c(-n2nc(C)cc2C)n1` was -0.382%.
Consider `O=C(CSC1=NS(=O)(=O)c2cc(F)ccc2N1)Nc1ccc(Cl)cc1`, for which the cytotoxicity at 70.5 h amounted to 22.3%.
The value for `CCNC(=O)NCc1nn(CCN2CCCC2)c(=O)c2ccccc12` was -5.36%.
In the case of `CN(C)S(=O)(=O)NCc1nn(CCN2CCCC2)c(=O)c2ccccc12`, the cytotoxicity at 70.5 h is -12.7%.
In the case of `Cc1ccccc1CSc1nc(=O)n(CCO)c2c1CCC2`, the cytotoxicity at 70.5 h is -9.33%.
With `CCCN1CCc2nc(SCc3ccccc3)[nH]c(=O)c2C1`, the cytotoxicity at 70.5 h stood at 8.44%.
As to `CCCN1CCc2nc(SCc3ccccc3F)[nH]c(=O)c2C1`, the cytotoxicity at 70.5 h stood at 6.37%.
Take `CCCS(=O)(=O)c1ccc(N2CCC(Cc3ccccc3)CC2)nn1`: the cytotoxicity at 70.5 h was -2.73%.
Regarding `CC(C)(C)OC(=O)Cn1cccc(S(=O)(=O)N2CCCC2)c1=O`, the cytotoxicity at 70.5 h is -12.8%.
`O=c1c(S(=O)(=O)N2CCCC2)cccn1Cc1c(F)cccc1Cl`: the cytotoxicity at 70.5 h is -6.76%.
`Cc1nc(C)n(CC2CCCN2CCCc2nc3ccccc3o2)n1` (configuration not stated): the cytotoxicity at 70.5 h was -5.85%.
For `NC(=O)COc1ccc(C(=O)N2CCCC(n3ccnc3)C2)cc1` (configuration not stated) the value was -3%.
For `Cc1ccc(NC2CCN(C(=O)CCc3c(C)noc3C)CC2)nn1`, the cytotoxicity at 70.5 h was -11.1%.
For `Cn1cc(C2CCCN2C(=O)c2cn(-c3ccccc3)nn2)cn1` (configuration not stated), the cytotoxicity at 70.5 h was -0.276%.
`Cc1ccc(-n2ncc(C(=O)N3CCCC3c3cnn(C)c3)c2C)cc1` (configuration not stated): the cytotoxicity at 70.5 h turned out to be 11.4%.
As for `NC(=O)c1cccc(C(=O)N2CCCC(n3ccnc3)C2)c1` (configuration not stated), the cytotoxicity at 70.5 h was -3.58%.
Take `NC(=O)C1CN(C(=O)Nc2ccccc2Oc2ccccc2Cl)CCO1` (configuration not stated): the cytotoxicity at 70.5 h was -6.93%.
With `Cc1cc(NC(=O)CN2CCN(c3nccs3)C(C)C2)on1` (configuration not stated), the cytotoxicity at 70.5 h is -6.15%.
On to `Cc1cc(NC(=O)CN2CCN(c3nccs3)C(C)C2)no1` (configuration not stated), for which the cytotoxicity at 70.5 h was -8.11%.
As to `Cc1n[nH]c(C)c1NC(=O)CN1CCN(c2nccs2)C(C)C1` (configuration not stated), the cytotoxicity at 70.5 h was -1.01%.
On to `CC(C)c1noc(CN2CCN(C(=O)c3cccc(F)c3)CC2)n1`, for which the cytotoxicity at 70.5 h was -8.17%.
The value for `COc1cccc(C(=O)N2CCN(Cc3nc(C(C)C)no3)CC2)c1` was -5.91%; that for `COc1c(C2CCCN2Cc2nc(-c3ccco3)no2)c(C)nn1C` (configuration not stated) was -2.62%.
Consider `CN1CCOC(CN(C(=O)CN2CCCC2=O)c2nccs2)C1` (configuration not stated), for which the cytotoxicity at 70.5 h turned out to be 9.36%.
With `Cc1ccc(NC2CCN(C(=O)CCc3nccs3)CC2)nn1`, the cytotoxicity at 70.5 h is -12.3%.
Take `c1ccc2oc(CN3CCCCC3Cn3cncn3)nc2c1` (configuration not stated): the cytotoxicity at 70.5 h is -4.46%.
For `NC(=O)c1cccc(OCC(=O)N2CCCC(n3ccnc3)C2)c1` (configuration not stated) the value was -11.1%; for `CN(Cc1nnc(C2CC2)n1C)C1CCN(Cc2nccn2C)C1` (configuration not stated), 2.78%; for `COc1cccc2cc(CNCc3ccnc(N4CCCCC4)c3)oc12`, 3.87%.
`CCn1c(C)nnc1CN(C)C1CCN(Cc2nnc(C3CC3)o2)C1` (configuration not stated): the cytotoxicity at 70.5 h was found to be 2.54%.
With `CCc1nnc(CN2CCCC2Cn2cc(C)cn2)o1` (configuration not stated), the cytotoxicity at 70.5 h amounted to 17.8%.
Regarding `Cn1cnc(S(=O)(=O)NCCCN2CCCC2)c1Cl`, the cytotoxicity at 70.5 h was -4.58%.
Turning to `O=C(Nc1nc2c(s1)CNCC2)NC1CCCC1`, the cytotoxicity at 70.5 h worked out at 18.7%.
On to `CCCC(=O)N(CCCN1CCOCC1)c1nc2c(C)ccc(Cl)c2s1`, for which the cytotoxicity at 70.5 h is -3.12%.
